Test results reported in patent US10517854B2, “Dosing regiments of celgosivir for the treatment of dengue” (60 Degrees Pharmaceuticals, LLC, priority 2013, dated 2019).
Entries after “also recorded” stand apart in the source; their conditions may differ.

Assays:
[1] = tested on: DENV1; assay: Cell-based flaviviral immunodetection assay (CFI), DENV1; settings: Dengue virus, BHK-21; DENV1, BHK21 cells, 48 hours
[2] = tested on: DENV3; assay: Cell-based flaviviral immunodetection assay (CFI), DENV3; settings: Dengue virus, BHK-21; DENV3, BHK21 cells, 48 hours
[3] = tested on: DENV4; assay: Cell-based flaviviral immunodetection assay (CFI), DENV4; settings: Dengue virus, BHK-21; DENV4, BHK21 cells, 48 hours
[4] = tested on: DENV2 infected BHK21; assay: Fluorescence microscopy for NS1 in infected BHK21 cells; type: cell-based, dengue virus; settings: 20 μM, 24 hr
Procedure: BHK21 cells were infected with DENV2 and treated with 20 μM celgosivir or saline. After 24 hr incubation, cells were stained with nuclear stain diamidino-2-phenylindole (DAPI) or with a MAb against NS1 in conjunction with a secondary antibody conjugated with Alexa-488 (green), then examined by fluorescent microscopy for the presence of NS1, a marker for viral replication.

[5] = tested on: EDEM, XBP1, CHOP; assay: Host gene products during drug-induced unfolded protein response; type: cell-based; settings: data not shown
Description: The pro-survival products enhance the clearance of misfolded proteins by directing them to the proteosome for degradation.

[6] = tested on: DENV2 strain NGC subgenomic replicon; assay: Replicon assay (luciferase, A549 replicon cell line); type: cell-based; settings: Dengue virus, A549 replicon cells, 48 hour
Procedure: The DENV subgenomic replicon was derived from the DENV2 strain NGC and consists of a luciferase reporter and a puromycin resistance gene for stable transfection. (7) Only the nonstructural proteins NS1, NS2A, NS2B, NS3, NS4A, NS4B, and NS5 were represented in the replicon construct. Of the nonstructural proteins, only NS1 is known to be glycosylated.
The stably transfected A549 replicon cell line was plated into a 96-well plate in the presence of various concentrations of test compounds and incubated for 48 hour at 37° C. in 5% CO2 incubator. The luciferase activity of the replicon treated with various concentrations of the test compound was measured using EnduRen (Promega) at a 1:1000 dilution followed by incubation for 2 hrs before the luminescence was read using a Tecan plate-reader. The data was plotted against the log transformation of the concentration of the compounds to obtain a dose-response curve to calculate the EC50 value.

[7] = tested on: DENV2 in THP-1 human monocytes; assay: ADE infection of human monocytes (THP-1), plaque assay; type: cell-based; settings: Dengue virus, THP-1, DENV2 + 4G2 antibody, 48 hours, read-out: EC50, suppression of viral replication under ADE condition
Procedure: The activity of celgosivir in infected human monocytes, one of the primary circulating cell types infected by dengue virus, was examined, THP-1 cells were grown in RPMI-1640 maintenance medium containing 10% fetal calf serum and 1% Penicillin-streptomycin and cultured in 37° C. incubator supplemented with 5% CO2. For ADE infection in THP-1 cells, virus (DENV2, MOI-10) was mixed with sub-neutralizing concentration of humanized 4G2 monoclonal antibody (0.05 μg/0.5 ml) and allowed to incubate on ice for 1 hr in the serum free medium, to allow immune complex formations. The immune complex was then added on to THP-1 (1×10^5) cells per well in a 24 well plate and further incubated for 2 hours at 37° C. incubator. An excess unbound immune complex was then removed by spinning cells at 1000 rpm for 5 min and then cells were supplemented with complete growth maintenance medium. For drug testing in the ADE condition, cells were mock (untreated) or celgosivir-treated for 48 hours, and finally media supernatant was collected for plaque assay analysis.

[8] = Pharmacokinetics mouse studies; settings: in vivo
Procedure: The concentration profile of celgosivir and castanospermine in the mouse after a single IP dose of celgosivir at a dose of 50 mg/kg is illustrated in FIG. 6A. Serum concentrations were measured using a validated LC/MS/MS assay performed. Celgosivir was measurable in serum only up to 1 hr post-dosing.
The castanospermine concentration profile after dosing at 50 mg/kg BID for 5 days was calculated by nonparametric superposition (FIG. 6B). This dosing regimen of celgosivir protected 100% of mice in the lethal ADE dengue infection model.

[9] = parameters: tmax: unit not given here; settings: cited from earlier work
[10] = cited from earlier work
[11] = tested on: gastrointestinal α-amylase, sucrase, maltase; settings: cited from earlier work
[12] = humans, cited from earlier work
[13] = healthy rats, single dose 35 mg/kg PO

Compound: CCCC(=O)O[C@H]1CN2CC[C@H](O)[C@@H]2[C@@H](O)[C@@H]1O.Cl [Celgosivir, celgosivir]
- EC50 [1]: 650 ± 160 nM
- EC50 [2]: 680 ± 20 nM
- EC50 [3]: 310 ± 120 nM
- NS1 / viral replication by immunofluorescence [4]: almost complete suppression of viral replication; also recorded: very low levels of NS1
- apoptotic markers such as CHOP [5]: down-regulated
- pro-survival host gene products such as EDEM and XBP1 [5]: upregulation
- EC50 [6]: 2200 nM
- EC50 [7]: 500 nM
- absorption compared with castanospermine [8]: more rapidly and efficiently absorbed than castanospermine
- species detected in plasma after celgosivir [8]: only castanospermine was detected in the plasma
- time celgosivir measurable in serum post-dosing ([8]; ip, 50 mg/kg): up to 1 hr
- mean Cmax in the portal vein ([9]; 400 mg/kg celgosivir PO): 1900 ng/mL
- AUC [9, 13]: 10.5
- Cmax [9, 13]: 8760 ± 1150 ng/mL
- tmax [9, 13]: 0.44±0.01
- AUC 0-60 min ([9]; portal vein, 400 mg/kg celgosivir PO): 1000 ng·h/mL
- Oral bioavailability ([9]; rat): 93%
- half-life ([9]; rat): 2.7 h
- oral clearance (CL/F) ([9]; rat): 41.7 mL/min/kg
- Cmax and AUC versus dose ([10]; humans): increase in proportion to dose
- oral clearance ([10]; humans): 12 L/h
- terminal half-life ([10]; humans): 18 h
- conversion in humans ([10]; only castanospermine detected in plasma): rapidly convert to castanospermine
- inhibition of gastrointestinal enzymes, comparison [11]: weaker inhibitor than castanospermine
- maximum tolerated dose (MTD) ([12]; HIV drug trials, for 184 days): 400 mg per day
- adverse events [12]: largely gastrointestinal, namely flatulence and diarrhea, of mild to moderate intensity
- serious adverse events [12]: No serious adverse events have been reported
- serum creatine kinase [12]: Asymptomatic elevations
- time to reversal of creatine kinase elevations after discontinuation [12]: ≤ 2 weeks
